The values below come from article PMC7470124, “Efficient synthesis, biological evaluation, and docking study of isatin based derivatives as caspase inhibitors” (Journal of Enzyme Inhibition and Medicinal Chemistry, 2020).

“Also recorded” adds a separate entry of the source.

For one series, the system named is caspase-3 and −7. The series can be described thus: Caspase-3 and -7 inhibition, acetyl-DEVD-AMC fluorogenic substrate assay (text does not say which caspase). It is filed as biochemical. Particulars: for inhibitory activity against caspase-3 and −7 (in words): compared to Ac-DEVD-CHO; for Selectivity Index (SI): IC50 caspase-7/IC50 caspase-3, greater than 1.5 = selective inhibitor of caspase-3; for inhibition percentage: at 20 μg/ml, caspase not given. As to the method:
(§1) The inhibitory activities of newly synthesised 2–(2,3-dioxoindolin-1-yl)-N-substituted phenyl acetamide, 1-(prop-2-yn-1-yl)indoline-2,3-dione and two series of compounds containing 1-(pyrrolidinyl)sulphonyl and 2-(phenoxymethyl)pyrrolidin-1-yl)sulphonyl substitution at C^5 position of isatin core (B, C, Table 1) against caspase-3 and −7 were evaluated by using the acetyl-DEVD-AMC fluorogenic substrate assay. The results are expressed as inhibition percentage and IC50 values in Table 1. We used Ac-DEVD-CHO as the positive control.
(§2) The activity assay of caspase-3 was performed in a system of 50 µL containing 150 mM NaCl, 1 mM EDTA, 2 mM DTT, 50 mM HEPES pH 7.4, 10 µM Ac-DEVD-AMC (Bachem Bioscience, Philadelphia, PA, USA) and 2 nM caspase-3 in the 1 µL DMSO. Caspase-3 was incubated with synthesised compounds in 384-well plates for 10 min. […] The enzymatic activity of the caspase-3 was measured based on production of a fluorogenic substrate, 7-amino-4-methyl coumarin, which was monitored for 10 min and detected using an EnVision (PerkinElmer, Wellesley, MA, USA) at λex = 360 nm and λem= 460 nm. The initial rate of hydrolysis was determined using the early linear region of the enzymatic reaction curve.

A further series has as its target T1, caspase-3 (Homo sapiens, UniProt P42574).
T1 sequence (P42574 29-175 limits assumed): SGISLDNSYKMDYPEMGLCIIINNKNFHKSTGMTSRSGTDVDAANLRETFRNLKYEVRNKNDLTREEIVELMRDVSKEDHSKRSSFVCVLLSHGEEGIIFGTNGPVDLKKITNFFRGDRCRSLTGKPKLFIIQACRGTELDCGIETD
T1 sequence (P42574 176-277 limits assumed): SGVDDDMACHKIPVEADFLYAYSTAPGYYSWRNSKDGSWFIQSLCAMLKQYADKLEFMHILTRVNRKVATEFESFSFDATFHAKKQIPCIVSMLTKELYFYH
The series is described as follows: Caspase-3 inhibition assay (Ac-DEVD-AMC fluorogenic substrate). In kind it is biochemical. The protocol: as §1, §2

As for `O=C(CN1C(=O)C(=O)c2ccccc21)Nc1ccc(Cl)cc1` [11d, N-(4-Chlorophenyl)-2–(2,3-dioxoindolin-1-yl)acetamide], the melting point fell in the range of 177 to 179 °C.
Regarding `COc1ccc(NC(=O)CN2C(=O)C(=O)c3cc(S(=O)(=O)N4CCC[C@H]4COc4ccccc4)ccc32)cc1` [20k, (S)-2–(2,3-Dioxo-5-((2-(phenoxymethyl)pyrrolidin-1-yl)sulphonyl)indolin-1-yl)-N-(4-methoxyphenyl)acetamide], the melting point was in the range of 204 to 206 °C. For the same molecule, in the series with caspase-3 and −7, the “inhibitory activity against caspase-3 and −7 (in words)” value (from here on “inhibitory activity”) is given as “lowest enzymatic inhibition”.
`O=C(CN1C(=O)C(=O)c2ccccc21)Nc1ccccc1` [11b, 2–(2,3-Dioxoindolin-1-yl)-N-phenylacetamide] displayed a melting point of 174 to 176 °C.
Molecule `O=C(CN1C(=O)C(=O)c2cc(S(=O)(=O)N3CCCC3)ccc21)Nc1ccc(F)cc1` [19c, 2–(2,3-Dioxo-5-(pyrrolidin-1-ylsulfonyl)indolin-1-yl)-N-(4-fluorophenyl)acetamide] registered a melting point of 191 to 193 °C.
The molecule `O=C(CN1C(=O)C(=O)c2cc(S(=O)(=O)N3CCC[C@H]3COc3ccccc3)ccc21)Nc1ccc(F)cc1` [20c, (S)-2–(2,3-Dioxo-5-((2-(phenoxymethyl)pyrrolidin-1-yl)sulphonyl)indolin-1-yl)-N-(4-fluorophenyl)acetamide] yielded a melting point of 108 to 110 °C. Further, the “Selectivity Index (SI)” value in the series with caspase-3 and −7 is recorded as “greater than 1.5”.
On to `O=C(CN1C(=O)C(=O)c2cc(S(=O)(=O)N3CCCC3)ccc21)Nc1ccc(OC(F)(F)F)cc1` [19i, 2–(2,3-Dioxo-5-(pyrrolidin-1-ylsulfonyl)indolin-1-yl)-N-(4-(trifluoromethoxy)phenyl)acetamide], for which the melting point was 266 to 267 °C.
Same read-out and setting: then `Cc1ccc(NC(=O)CN2C(=O)C(=O)c3ccccc32)cc1` [11j, 2–(2,3-Dioxoindolin-1-yl)-N-(p-tolyl)acetamide], with 196 to 198 °C.
Consider `O=C(CN1C(=O)C(=O)c2cc(S(=O)(=O)N3CCC[C@H]3COc3ccccc3)ccc21)Nc1ccccc1[N+](=O)[O-]` [20f, (S)-2–(2,3-Dioxo-5-((2-(phenoxymethyl)pyrrolidin-1-yl)sulphonyl)indolin-1-yl)-N-(2-nitrophenyl)acetamide], for which the melting point lay in the range of 180 to 182 °C. Moreover, the “inhibitory activity” value with caspase-3 and −7 is “moderated caspase-3 and −7 inhibitors”.
With Ac-DEVD-CHO [reference compound], the IC50 on caspase-3 and −7 (caspase-3 and −7, Mean ± SD of three experiments, read-out: IC50 (positive control / studied compounds)) is 16 ± 2 nM.
On to `O=C(CN1C(=O)C(=O)c2cc(S(=O)(=O)N3CCCC3)ccc21)Nc1ccccc1[N+](=O)[O-]` [19f, 2–(2,3-Dioxo-5-(pyrrolidin-1-ylsulfonyl)indolin-1-yl)-N-(2-nitrophenyl)acetamide], for which the melting point fell in the range of 195 to 197 °C.
On to `O=C(CN1C(=O)C(=O)c2ccccc21)Nc1cccc([N+](=O)[O-])c1` [11g, 2–(2,3-Dioxoindolin-1-yl)-N-(3-nitrophenyl)acetamide], for which the melting point lay in the range of 191 to 192 °C.
Still for that read-out and setting: under `O=C(CN1C(=O)C(=O)c2ccccc21)Nc1ccc(Br)cc1` [11e, N-(4-Bromophenyl)-2–(2,3-dioxoindolin-1-yl)acetamide] stands 179 to 181 °C; under `C#CCN1C(=O)C(=O)c2cc(S(=O)(=O)N3CCC[C@H]3COc3ccccc3)ccc21` [20a, (S)-5-((2-(Phenoxymethyl)pyrrolidin-1-yl)sulphonyl)-1-(prop-2-yn-1-yl)indoline-2,3-dione], 282 to 284 °C.
Molecule `O=C(CN1C(=O)C(=O)c2ccccc21)Nc1ccccc1[N+](=O)[O-]` [11f, 2–(2,3-Dioxoindolin-1-yl)-N-(2-nitrophenyl)acetamide] returned a melting point of 186 to 188 °C. This molecule registered an inhibition percentage with caspase-3 and −7 of 5%.
On to `O=C(CN1C(=O)C(=O)c2cc(S(=O)(=O)N3CCC[C@H]3COc3ccccc3)ccc21)Nc1cccc([N+](=O)[O-])c1` [20g, (S)-2–(2,3-Dioxo-5-((2-(phenoxymethyl)pyrrolidin-1-yl)sulphonyl)indolin-1-yl)-N-(3-nitrophenyl)acetamide], for which the melting point fell in the range of 181 to 183 °C.
`O=C(CN1C(=O)C(=O)c2cc(S(=O)(=O)N3CCC[C@H]3COc3ccccc3)ccc21)Nc1ccc(Br)cc1` [20e, (S)-N-(4-Bromophenyl)-2–(2,3-dioxo-5-((2-(phenoxymethyl)pyrrolidin-1-yl)sulphonyl)indolin-1-yl)acetamide] had a melting point of 196 to 198 °C. In addition, the “Selectivity Index (SI)” value in the series on caspase-3 and −7 is listed as “greater than 1.5”.
For `Cc1ccc(NC(=O)CN2C(=O)C(=O)c3cc(S(=O)(=O)N4CCC[C@H]4COc4ccccc4)ccc32)cc1` [20j, (S)-2–(2,3-Dioxo-5-((2-(phenoxymethyl)pyrrolidin-1-yl)sulphonyl)indolin-1-yl)-N-(p-tolyl)acetamide], the melting point was 209 to 211 °C. In addition, in the series with caspase-3 and −7, the “inhibitory activity” value is listed as “lowest enzymatic inhibition”.
In the case of `O=C(CN1C(=O)C(=O)c2cc(S(=O)(=O)N3CCC[C@H]3COc3ccccc3)ccc21)Nc1ccccc1` [20b, (S)-2–(2,3-Dioxo-5-((2-(phenoxymethyl)pyrrolidin-1-yl)sulphonyl)indolin-1-yl)-N-phenylacetamide], the melting point was in the range of 238 to 240 °C.
Still for that read-out and setting: then `O=C(CN1C(=O)C(=O)c2ccccc21)Nc1ccc([N+](=O)[O-])cc1` [11h, 2–(2,3-Dioxoindolin-1-yl)-N-(4-nitrophenyl)acetamide], with 179 to 181 °C; and `O=C(CN1C(=O)C(=O)c2cc(S(=O)(=O)N3CCC[C@H]3COc3ccccc3)ccc21)Nc1ccc(OC(F)(F)F)cc1` [20i, (S)-2–(2,3-Dioxo-5-((2-(phenoxymethyl)pyrrolidin-1-yl)sulphonyl)indolin-1-yl)-N-(4-(trifluoromethoxy)phenyl)acetamide], with 218 to 220 °C; and `O=C(CN1C(=O)C(=O)c2cc(S(=O)(=O)N3CCC[C@H]3COc3ccccc3)ccc21)Nc1ccc([N+](=O)[O-])cc1` [20h, (S)-2–(2,3-Dioxo-5-((2-(phenoxymethyl)pyrrolidin-1-yl)sulphonyl)indolin-1-yl)-N-(4-nitrophenyl)acetamide], with 162 to 164 °C.
Same read-out and setting: then `COc1ccc(NC(=O)CN2C(=O)C(=O)c3ccccc32)cc1` [11k, 2–(2,3-Dioxoindolin-1-yl)-N-(4-methoxyphenyl)acetamide], with 201 to 203 °C.
For the molecule `O=C(CN1C(=O)C(=O)c2ccccc21)Nc1ccc(F)cc1` [11c, 2–(2,3-Dioxoindolin-1-yl)-N-(4-fluorophenyl)acetamide], the inhibition percentage in the series on caspase-3 and −7 was determined as 71%.
For `O=C(CN1C(=O)C(=O)c2ccccc21)Nc1ccc(OC(F)(F)F)cc1` [11i, 2–(2,3-Dioxoindolin-1-yl)-N-(4-(trifluoromethoxy)phenyl)acetamide], the melting point was 209 to 211 °C.
As to `O=C(CN1C(=O)C(=O)c2cc(S(=O)(=O)N3CCC[C@H]3COc3ccccc3)ccc21)Nc1ccc(Cl)cc1` [20d, (S)-N-(4-chlorophenyl)-2–(2,3-dioxo-5-((2-(phenoxymethyl)pyrrolidin-1-yl)sulphonyl)indolin-1-yl)acetamide], the melting point lay in the range of 209 to 211 °C. At caspase-3, this molecule came in with an IC50 of 2330 nM. In the series with caspase-3 and −7, the “Selectivity Index (SI)” value was “greater than 1.5”; the “inhibitory activity” value was “most active compound; also recorded: moderate inhibitory activity”.
On to `C#CCN1C(=O)C(=O)c2cc(S(=O)(=O)N3CCCC3)ccc21` [19a, 1-(Prop-2-yn-1-yl)-5-(pyrrolidin-1-ylsulfonyl)indoline-2,3-dione], for which the melting point is 203 to 205 °C. Moreover, the “Selectivity Index (SI)” value in the series with caspase-3 and −7 is “greater than 1.5”.
Molecule `C#CCN1C(=O)C(=O)c2ccccc21` [11a, 1-(Prop-2-yn-1-yl)indoline-2,3-dione] gave a melting point of 158 to 160 °C.

Usually melting point stands for the temperature of the solid-liquid transition.
